For data set [1], the system named is mice with xerophthalmia (0.2% benzalkonium chloride). Kind of data set: Benzalkonium chloride xerophthalmia mouse model: sodium fluorescein staining and phenol red cotton thread tear test. The data set is classed as in vivo, mouse (C57BL/6). The procedure:
The ocular xerophthalmia model was established in 6-8 weeks old mice (C57BL/6, Suzhou Xishan Biotechnology Co., Ltd.) with 0.2% benzalkonium chloride. 5 μL of 0.2% benzalkonium chloride was dripped into each eye of the mice, once in the morning and once in the evening every day, for two consecutive weeks. After successful modeling, the hospital-prepared CsA eye drops (400 µM CsA, referred to as hospital-prepared CsA eye drops or CsA eye drops, provided by the Eye, Ear, Nose and Throat Hospital Affiliated to Fudan University School of Medicine, Shanghai) and CsA-ASONFKBIZ-m (400 µM CsA) were used for eye drops treatment, 5 μL per eye, once in the morning and once in the evening. Sodium fluorescein staining and phenol red cotton thread tear secretion test were conducted on days 0, 7, and 14 of treatment to evaluate the therapeutic effect.
(§1) The ocular xerophthalmia model was established in 6-8 weeks old mice (C57BL/6, Suzhou Xishan Biotechnology Co., Ltd.) with 0.2% benzalkonium chloride. 5 μL of 0.2% benzalkonium chloride was dripped into each eye of the mice, once in the morning and once in the evening every day, for two consecutive weeks. After successful modeling, the hospital-prepared CsA eye drops (400 μM CsA, provided by the Eye, Ear, Nose and Throat Hospital Affiliated to Fudan University School of Medicine, Shanghai) and 2CsA-ASONFKBIZ-m (400 µM CsA) were used for eye drops treatment, 5 μL per eye, once in the morning and once in the evening. Sodium fluorescein staining and phenol red cotton thread tear secretion test were conducted on days 0, 7, and 14 of treatment to evaluate the therapeutic effect.
as §1, with “µM” for “μM”, “provided” for “provided by”, “3CsA-ASONFKBIZ-m nanomicelles (133 µM ASO concentration, 400” for “2CsA-ASONFKBIZ-m (400”
as §1, with “CsA3-ASONFKBIZ-m nanomicelles” for “2CsA-ASONFKBIZ-m”, “0” for “0, 7,”
The ocular xerophthalmia model was established in 6-8 weeks old mice (C57BL/6, Suzhou Xishan Biotechnology Co., Ltd.) using 0.2% benzalkonium chloride. 5 μL of 0.2% benzalkonium chloride was dripped into each eye of the mouse, once in the morning and once in the evening every day for two weeks. After successful modeling, the hospital-prepared CsA eye drops (400 µM CsA, provided by the Eye, Ear, Nose and Throat Hospital Affiliated to Fudan University School of Medicine, Shanghai) and CsA-siRNANFKBIZ-m (400 µM CsA), 2CsA-siRNANFKBIZ-m nanomicelles (400 µM CsA), 3CsA-siRNANFKBIZ-m nanomicelles (400 µM CsA) were used for eye drops treatment, 5 μL per eye, once in the morning and once in the evening. […]

In data set [2] the test system is psoriasis-like model mice (5% imiquimod cream). In words: Imiquimod psoriasis-like mouse model, smear administration in carbomer gel. The data set is classed as in vivo. As to conditions: nanomicelles in carbomer gel applied to skin lesions, after 7 d of treatment. As for the experimental part:
The psoriasis model on the back and ears of 6-8 weeks old mice (C57BL/6, Suzhou Xishan Biotechnology Co., Ltd.) was established with 5% imiquimod cream. After removing the hair on the back of the mice, 60 mg of 5% imiquimod cream was applied to the back and ears of each mouse for 6 consecutive days. […] CsA3-ASONFKBIZ-m nanomicelles were mixed with carbomer gel and applied to the skin lesions for treatment. The carbomer gel without CsA3-ASONFKBIZ-m nanomicelles was used as a control group (control) for efficacy testing. On the 7 d of treatment, the thickness of the skin at the back lesions and the thickness of the ears were measured, and the erythema, scaling, skin thickening, and severity of the psoriasis lesions were scored. The results were shown in FIG. 54, FIGS. 55A-55B, and FIGS. 56A-56D.
The psoriasis model on the back and ears of 6-8 weeks old mice was established with 5% imiquimod cream. After removing the hair on the back of the mice, 60 mg of 5% imiquimod cream was applied to the back and ears of each mouse for 6 consecutive days. […] 10TA-ASONFKBIZ-m nanomicelles were mixed with carbomer gel and applied to the skin lesions for treatment. […] On the 7 d of treatment, the thickness of the skin at the back lesions and the thickness of the ears were measured, and the erythema, scaling, skin thickening, and severity of the psoriasis lesions were scored. […]

Where [3] appears, read: eye drops 5 μL per eye twice daily, 400 μM CsA (10RAP: 400 μM rapamycin), day 14.
Where [4] appears, read: xerophthalmia mice, baseline of the treatment group.

For the substance “CsA3-ASONFKBIZ-m: CsA trimer on tripropargyl linker at 3′ end of ASO targeting mouse NFKBIZ (SEQ ID NO: 8) (AATACTGGTACATTGACGCC; 3'-NHS ASO with tripropargyl linker carrying three cyclosporin A, chemistry not given here, further chemistry not given here)”, in data set [1] (setting [3]), the “phenol red cotton thread infiltration length (tear secretion) after 14 d of treatment” value is reported as “about 3.5 mm” and the “sodium fluorescein staining eye score after 14 d of treatment” value is “about 6 points”. In addition, in data set [1] (setting [4]), the “phenol red cotton thread infiltration length (tear secretion), day 0 (before treatment)” value is on record as 1.5 mm and the “sodium fluorescein staining eye score, day 0 (before treatment)” value was 10 points. In data set [2], the “erythema and scaling of the skin lesions versus control group” value is given as “significantly reduced”; the “skin thickness of the lesions (and ears) versus control group” value is listed as “reduced”.

Source of the values: patent publication US20250367302A1, “SMALL MOLECULE DRUG-OLIGONUCLEOTIDE CONJUGATE AND USE THEREOF” (SHANGHAI JIAO TONG UNIVERSITY, priority 2022, published 2025).
